Molecular target: T1, human M4 muscarinic acetylcholine receptor (Homo sapiens, UniProt P08173)
T1 construct: expressed in transfected cells; host or cells: CHO-K1
T1 sequence (P08173 1-479): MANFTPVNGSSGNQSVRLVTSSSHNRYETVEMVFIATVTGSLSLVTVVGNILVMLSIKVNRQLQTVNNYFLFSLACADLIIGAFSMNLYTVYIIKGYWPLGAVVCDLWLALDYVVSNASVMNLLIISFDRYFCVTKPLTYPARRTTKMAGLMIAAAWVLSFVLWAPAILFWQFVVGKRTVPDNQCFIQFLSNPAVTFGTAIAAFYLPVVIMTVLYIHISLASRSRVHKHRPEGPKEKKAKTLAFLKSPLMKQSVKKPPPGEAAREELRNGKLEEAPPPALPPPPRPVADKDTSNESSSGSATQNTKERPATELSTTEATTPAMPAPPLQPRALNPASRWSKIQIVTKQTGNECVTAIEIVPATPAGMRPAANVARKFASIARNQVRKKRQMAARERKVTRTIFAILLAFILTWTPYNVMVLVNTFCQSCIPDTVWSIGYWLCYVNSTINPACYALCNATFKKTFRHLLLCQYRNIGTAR
Experiment: human FLIPR-based M4 PAM assay (calcium mobilization, CHO-K1 cells with human M4 receptor and Gαqi5)
Format: cell-based
Details: inflection point (IP) of dose response curve, acetylcholine added at 20% of maximum response, read-out: M4 FLIPPR Hu IP
Outline: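 CHO-K1 cells stably expressing human M4 and Gαqi5, dye-loaded ~1 h at 37 °C, read on FLIPR Tetra. Test compound added at increasing concentrations 4 min before acetylcholine at an EC20 concentration, sometimes followed by an EC70 addition. Dose-response curves fit to a 4-parameter logistic; result is the curve inflection point.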

## N#Cc1ccc(-c2cnc(CC3(C(F)(F)F)CC3)o2)c(-c2ccn3ccnc3c2)n1 [Example 21, 6-(imidazo[1,2-a]-pyridin-7-yl)-5-(2-((1-(trifluoromethyl)-cyclopropyl)methyl)-oxazol-5-yl)picolino-nitrile]
  EC50: 82 nM

## COc1cc2ccc(-c3nc(C)ccc3-c3cnc(CC4CCCC4)o3)cc2nn1 [Example 2, 2-(cyclopentyl-methyl)-5-(2-(3-methoxycinnolin-7-yl)-6-methyl-pyridin-3-yl)-oxazole]
  EC50: 13 nM

## Cc1cn2ccc(-c3nc(C#N)ccc3-c3cnc(CC4CC(F)(F)C4)o3)cc2n1 [Example 98, 5-(2-((3,3-difluorocyclobutyl)methyl)oxazol-5-yl)-6-(2-methylimidazo[1,2-a]pyridin-7-yl)picolinonitrile]
  EC50: 36 nM

## CC(C)(C)CCc1ncc(-c2ccc(C#N)nc2-c2ccn3ccnc3c2)o1 [Example 66, 5-(2-(3,3-dimethylbutyl)oxazol-5-yl)-6-(imidazo[1,2-a]pyridin-7-yl) picolinonitrile]
  EC50: 42 nM

## CN1Cc2ccc(-c3nc(C#N)ccc3-c3cnc(CC4(O)CCCC4)o3)cc2C1=O [Example 81, 5-(2-((1-hydroxycyclopentyl)methyl)oxazol-5-yl)-6-(2-methyl-3-oxoisoindolin-5-yl) picolinonitrile]
  EC50: 184 nM

## CC(Cc1ncc(-c2ccc(C#N)nc2-c2ccn3ccnc3c2)o1)C(F)F (stereo not shown) [Example 94, 5-(2-(3,3-difluoro-2-methylpropyl)oxazol-5-yl)-6-(imidazo[1,2-a]pyridin-7-yl) picolinonitrile]
  EC50: 137 nM

## CC(C)(F)Cc1ncc(-c2ccc(C#N)nc2-c2ccc3cccnc3c2)o1 [Example 80, 5-(2-(2-fluoro-2-methylpropyl)oxazol-5-yl)-6-(quinolin-7-yl) picolinonitrile]
  EC50: 141 nM

## Cn1cnc2cc(-c3nc(C#N)ccc3-c3cnc(CC(C)(C)C(F)(F)F)o3)ccc21 [Example 114, 6-(1-methyl-1H-benzo[d]imidazol-5-yl)-5-(2-(3,3,3-trifluoro-2,2-dimethylpropyl)oxazol-5-yl)picolinonitrile]
  EC50: 92 nM

## CC1(Cc2ncc(-c3cc4c(nc3-c3cnc5c(c3)C(=O)NC5)C(F)CC4)o2)CCCC1 (single isomer, unassigned) [Example 45, 3-(7-fluoro-3-(2-((1-methylcyclopentyl)methyl)oxazol-5-yl)-6,7-dihydro-5H-cyclopenta[b]pyridin-2-yl)-6,7-dihydro-5H-pyrrolo[3,4-b]pyridin-5-one]
  EC50: 42 nM

## CN1Cc2ncc(-c3nc(C#N)ccc3-c3cnc(CC4(C)CCCC4)o3)cc2C1=O [Example 12, 6-(6-methyl-5-oxo-6,7-dihydro-5H-pyrrolo[3,4-b]-pyridin-3-yl)-5-(2-((1-methyl-cyclopentyl)-methyl)oxazol-5-yl)picolinonitrile]
  EC50: 34 nM

## N#Cc1ccc(-c2cnc(C[C@@H]3CC[C@H](F)C3)o2)c(-c2ccc3cccnc3c2)n1 [Example 101, 5-(2-(((1S,3S)-3-fluorocyclopentyl)methyl)oxazol-5-yl)-6-(quinolin-7-yl)picolinonitrile]
  EC50: 25 nM

## N#Cc1ccc(-c2cnc(CC3CC3)o2)c(-c2ccc3cccnc3c2)n1 [Example 62, 5-(2-(cyclopropylmethyl)oxazol-5-yl)-6-(quinolin-7-yl)picolinonitrile]
  EC50: 104 nM

## CN1Cc2ncc(-c3nc4c(cc3-c3cnc(CC5(C)CCCC5)o3)CCC4)cc2C1=O [Example 17, 6-methyl-3-(3-(2-((1-methylcyclo-pentyl)methyl)-oxazol-5-yl)-6,7-dihydro-5H-cyclo-penta[b]pyridin-2-yl)-6,7-dihydro-5H-pyrrolo[3,4-b]-pyridin-5-one]
  EC50: 26 nM

From patent publication US10981902B2 (Merck Sharp & Dohme Corp., priority 2017, dated 2021)
